Reference: US8916593B2, “Alkoxy-substituted 2-aminopyridines as ALK inhibitors” (Pfizer Inc., priority 2010, dated 2014)

Tests used:
[1] = molecular target: T1, ALK enzyme (Homo sapiens, UniProt Q9UM73); test: ALK enzymatic activity assay 1; format: biochemical
T1 construct: purchased Invitrogen PV4185
Protocol: ALK Enzymatic Activity Assay 1
Compounds were added at a final concentration of 1% DMSO in half-log dilutions, starting at 20 μM final concentration. The reactions were initiated by the addition of 10 μL of peptide/ATP mix to 10 μL enzyme and 2 μL of compound in 384-well plate. […] On the 12-sipper chip, substrate and phosphorylated product were separated with an upstream voltage of −2650 V, a downstream voltage of −500 V, and a screen pressure of −1.5 psi. The relative peak heights of substrate and product were measured and ratios were calculated using HTS Well Analyzer Software version 5.2.43 from the manufacturer.

[2] = molecular target: T2, cMet enzyme (Homo sapiens, UniProt P08581); test: cMet enzymatic activity assay; format: biochemical; conditions: purified cMet enzyme 7.5 nM, ATP 17 μM (Km)
T2 construct: RTC Lot#032006
Protocol: cMet Enzymatic Activity Assay
Compounds were added at a final concentration of 2% DMSO in half-log dilutions, starting at 20 μM final concentration. The reactions were initiated by addition of 10 μL of peptide/ATP mix to 10 μL enzyme and 5 μL of compound in 384-well plate. […] Substrate and phosphorylated product were separated with an upstream voltage of −2650 V, a downstream voltage of −500V, and a screen pressure of −1.5 psi. The relative peak heights of substrate and product were measured and ratios were calculated using HTS Well Analyzer Software version 5.2.43 from the manufacturer.

[3] = molecular target: EML4-ALK wt v1 in NIH-3T3 cells (Homo sapiens, UniProt Q9UM73)
[4] = molecular target: T3, human recombinant wild-type ALK kinase domain (amino acids 1093-1411) (Homo sapiens, UniProt Q9UM73); test: ALK enzyme assay 2 (microfluidic mobility shift assay); format: biochemical;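 note: kinase reaction run 1 h at room temperature, conversion quantified by electrophoretic separation of fluorescent peptide substrate from phosphorylated product, about 15-20% turnover without inhibitor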
T3 construct: ALK kinase domain (amino acids 1093-1411); made in house
T3 sequence (Q9UM73 1093-1411): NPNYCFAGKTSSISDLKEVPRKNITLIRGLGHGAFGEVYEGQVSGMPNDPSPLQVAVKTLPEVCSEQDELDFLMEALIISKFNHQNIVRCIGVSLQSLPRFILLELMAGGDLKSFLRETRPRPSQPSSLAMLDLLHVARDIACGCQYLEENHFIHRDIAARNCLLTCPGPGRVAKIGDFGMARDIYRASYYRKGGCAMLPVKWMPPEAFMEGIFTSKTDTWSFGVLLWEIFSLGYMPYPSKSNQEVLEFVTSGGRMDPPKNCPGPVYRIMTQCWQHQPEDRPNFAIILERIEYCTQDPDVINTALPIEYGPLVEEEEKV
Protocol: The reactions were incubated for 1 h at room temperature, stopped by the addition of 0.1 M EDTA, pH 8, and the extent of reactions (˜15-20% conversion with no inhibitor) was determined after electrophoretic separation of the fluorescently labeled peptide substrate and phosphorylated product on an LabChip EZ Reader II (Caliper Life Sciences, Hopkinton, Mass.).

T1 sequence (Q9UM73 19-1620): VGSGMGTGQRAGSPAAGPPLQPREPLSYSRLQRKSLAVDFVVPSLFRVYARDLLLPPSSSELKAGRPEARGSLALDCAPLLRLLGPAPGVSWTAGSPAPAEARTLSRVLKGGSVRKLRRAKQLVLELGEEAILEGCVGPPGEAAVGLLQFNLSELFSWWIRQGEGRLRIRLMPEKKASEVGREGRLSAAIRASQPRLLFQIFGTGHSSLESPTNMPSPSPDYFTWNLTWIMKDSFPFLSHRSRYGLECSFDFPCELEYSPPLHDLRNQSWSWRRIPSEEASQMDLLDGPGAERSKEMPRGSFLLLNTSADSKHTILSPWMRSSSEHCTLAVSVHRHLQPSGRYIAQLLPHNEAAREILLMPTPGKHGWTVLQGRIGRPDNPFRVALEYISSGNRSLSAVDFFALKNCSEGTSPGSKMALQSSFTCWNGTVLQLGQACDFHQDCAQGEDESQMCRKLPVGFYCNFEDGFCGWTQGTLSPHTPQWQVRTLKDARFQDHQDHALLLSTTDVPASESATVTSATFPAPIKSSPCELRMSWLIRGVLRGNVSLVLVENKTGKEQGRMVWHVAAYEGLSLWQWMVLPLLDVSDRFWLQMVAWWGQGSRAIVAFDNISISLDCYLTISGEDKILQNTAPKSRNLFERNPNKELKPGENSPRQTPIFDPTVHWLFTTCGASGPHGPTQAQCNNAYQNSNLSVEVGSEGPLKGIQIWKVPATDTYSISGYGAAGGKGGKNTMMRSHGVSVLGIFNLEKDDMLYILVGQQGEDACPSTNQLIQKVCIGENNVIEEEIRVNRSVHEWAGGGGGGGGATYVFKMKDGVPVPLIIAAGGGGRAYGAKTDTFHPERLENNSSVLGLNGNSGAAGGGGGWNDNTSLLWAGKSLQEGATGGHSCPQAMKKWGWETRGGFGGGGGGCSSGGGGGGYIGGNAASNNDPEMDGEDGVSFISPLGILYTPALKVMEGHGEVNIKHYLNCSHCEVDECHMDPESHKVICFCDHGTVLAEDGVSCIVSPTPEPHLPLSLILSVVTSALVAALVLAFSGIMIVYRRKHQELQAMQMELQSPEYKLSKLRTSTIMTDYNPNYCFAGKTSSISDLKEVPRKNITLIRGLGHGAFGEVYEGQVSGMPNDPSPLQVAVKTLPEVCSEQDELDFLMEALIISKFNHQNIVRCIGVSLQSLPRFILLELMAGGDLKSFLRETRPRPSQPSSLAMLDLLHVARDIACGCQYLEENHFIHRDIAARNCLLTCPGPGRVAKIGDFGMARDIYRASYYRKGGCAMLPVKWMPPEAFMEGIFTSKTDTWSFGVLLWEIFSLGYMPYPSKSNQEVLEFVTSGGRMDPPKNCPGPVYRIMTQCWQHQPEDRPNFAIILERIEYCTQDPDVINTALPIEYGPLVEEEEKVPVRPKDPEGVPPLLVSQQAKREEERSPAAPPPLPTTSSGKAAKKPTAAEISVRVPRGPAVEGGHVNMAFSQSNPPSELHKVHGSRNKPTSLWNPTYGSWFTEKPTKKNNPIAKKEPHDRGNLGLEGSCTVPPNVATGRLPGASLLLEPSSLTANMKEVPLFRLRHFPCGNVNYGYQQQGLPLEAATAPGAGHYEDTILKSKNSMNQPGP
EML4-ALK wt v1 in NIH-3T3 cells, sequence (Q9UM73 with tags, fused parts or gaps): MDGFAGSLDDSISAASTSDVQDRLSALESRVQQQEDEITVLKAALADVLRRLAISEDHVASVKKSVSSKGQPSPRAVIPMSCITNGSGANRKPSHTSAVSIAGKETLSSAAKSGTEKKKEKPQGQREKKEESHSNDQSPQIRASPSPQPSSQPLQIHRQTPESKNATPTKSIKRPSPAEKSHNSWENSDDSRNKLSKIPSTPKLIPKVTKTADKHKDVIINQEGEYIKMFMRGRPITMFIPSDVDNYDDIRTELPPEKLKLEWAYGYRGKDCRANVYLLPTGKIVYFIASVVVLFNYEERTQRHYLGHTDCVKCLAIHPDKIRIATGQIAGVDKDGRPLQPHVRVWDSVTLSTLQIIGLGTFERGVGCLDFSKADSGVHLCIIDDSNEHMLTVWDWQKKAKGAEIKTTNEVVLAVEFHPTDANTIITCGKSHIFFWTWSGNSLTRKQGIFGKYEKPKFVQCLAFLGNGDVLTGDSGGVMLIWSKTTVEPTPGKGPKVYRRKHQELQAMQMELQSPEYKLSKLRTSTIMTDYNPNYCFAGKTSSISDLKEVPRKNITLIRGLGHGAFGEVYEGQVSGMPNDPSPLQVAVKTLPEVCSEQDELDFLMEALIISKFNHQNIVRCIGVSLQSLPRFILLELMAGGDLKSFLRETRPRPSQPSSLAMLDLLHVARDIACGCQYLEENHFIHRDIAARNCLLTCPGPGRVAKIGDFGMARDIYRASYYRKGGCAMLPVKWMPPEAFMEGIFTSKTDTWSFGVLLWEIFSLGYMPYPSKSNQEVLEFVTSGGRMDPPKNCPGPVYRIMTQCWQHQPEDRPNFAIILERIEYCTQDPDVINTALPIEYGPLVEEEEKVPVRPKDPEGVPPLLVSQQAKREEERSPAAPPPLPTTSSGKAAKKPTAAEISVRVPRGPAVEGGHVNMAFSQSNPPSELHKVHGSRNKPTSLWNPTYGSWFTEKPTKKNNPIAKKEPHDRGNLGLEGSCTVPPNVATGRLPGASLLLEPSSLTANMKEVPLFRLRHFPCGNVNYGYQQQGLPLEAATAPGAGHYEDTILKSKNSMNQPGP
T2 sequence (P08581 25-1390): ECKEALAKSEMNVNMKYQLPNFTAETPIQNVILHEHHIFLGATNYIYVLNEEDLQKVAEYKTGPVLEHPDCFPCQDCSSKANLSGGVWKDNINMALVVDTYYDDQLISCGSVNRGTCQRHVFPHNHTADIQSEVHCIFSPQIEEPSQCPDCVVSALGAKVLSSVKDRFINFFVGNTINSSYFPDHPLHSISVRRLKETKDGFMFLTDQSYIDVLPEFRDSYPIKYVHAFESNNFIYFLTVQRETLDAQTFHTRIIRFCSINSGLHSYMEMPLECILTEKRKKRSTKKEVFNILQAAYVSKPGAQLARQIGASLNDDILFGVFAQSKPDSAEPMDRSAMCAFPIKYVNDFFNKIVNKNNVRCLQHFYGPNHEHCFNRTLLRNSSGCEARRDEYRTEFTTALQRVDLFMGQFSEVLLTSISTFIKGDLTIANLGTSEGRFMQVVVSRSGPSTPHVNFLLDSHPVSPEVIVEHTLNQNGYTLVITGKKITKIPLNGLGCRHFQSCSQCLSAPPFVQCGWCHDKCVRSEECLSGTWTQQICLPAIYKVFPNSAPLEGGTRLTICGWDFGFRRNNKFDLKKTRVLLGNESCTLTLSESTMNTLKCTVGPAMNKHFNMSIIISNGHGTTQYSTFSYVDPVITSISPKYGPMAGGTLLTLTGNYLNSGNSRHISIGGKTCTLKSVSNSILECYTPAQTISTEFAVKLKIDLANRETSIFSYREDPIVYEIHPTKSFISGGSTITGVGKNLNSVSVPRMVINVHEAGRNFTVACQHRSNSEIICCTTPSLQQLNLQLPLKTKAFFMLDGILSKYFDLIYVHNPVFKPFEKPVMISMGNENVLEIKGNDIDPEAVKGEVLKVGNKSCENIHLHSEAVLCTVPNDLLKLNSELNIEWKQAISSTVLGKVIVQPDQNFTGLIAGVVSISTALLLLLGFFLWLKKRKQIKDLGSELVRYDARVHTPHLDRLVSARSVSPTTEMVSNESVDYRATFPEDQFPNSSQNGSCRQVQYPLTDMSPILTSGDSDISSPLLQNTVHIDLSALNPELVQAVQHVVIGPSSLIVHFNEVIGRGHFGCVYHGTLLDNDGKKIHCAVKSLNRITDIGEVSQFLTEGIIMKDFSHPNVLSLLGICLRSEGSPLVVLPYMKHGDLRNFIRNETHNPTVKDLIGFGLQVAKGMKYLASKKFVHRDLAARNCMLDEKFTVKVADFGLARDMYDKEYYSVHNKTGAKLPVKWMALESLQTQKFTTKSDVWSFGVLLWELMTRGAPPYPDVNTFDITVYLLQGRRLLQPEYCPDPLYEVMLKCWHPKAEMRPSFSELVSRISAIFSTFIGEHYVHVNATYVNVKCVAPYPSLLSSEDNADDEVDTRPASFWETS

SMILES	IC50 [1]	IC50 [2]	IC50 [3]	Ki [4]
COc1ccc(F)cc1C(C)Oc1cc(-c2cccnc2O)cnc1N (centres unmarked) [Example 8, 6′-amino-5′-[1-(5-fluoro-2-methoxyphenyl)ethoxy]-3,3′-bipyridin-2-ol]	98.2 nM	17400 nM	–	–
COc1ncccc1-c1cnc(N)c(OC(C)c2cc(F)ccc2-n2nccn2)c1 (centres unmarked) [Example 46, 5-{1-[5-fluoro-2-(2H-1,2,3-triazol-2-yl)phenyl]-ethoxy}-2′-methoxy-3,3′-bipyridin-6-amine]	–	6850 nM	–	–
COc1ccc(F)cc1C(C)Oc1cc(-c2scnc2CO)cnc1N (centres unmarked) [Example 14, (5-{6-amino-5-[1-(5-fluoro-2-methoxyphenyl)ethoxy]-pyridin-3-yl}-1,3-thiazol-4-yl)methanol]	74.8 nM	8290 nM	–	–
COc1ccc(F)cc1[C@@H](C)Oc1cc(-c2c(C)ncn2C)cnc1N [Example 25, 5-(1,4-dimethyl-1H-imidazol-5-yl)-3-[(1R)-1-(5-fluoro-2-methoxyphenyl)-ethoxy]pyridin-2-amine]	38.2 nM	13200 nM	–	–
C[C@@H](Oc1cc(-c2ccnn2C)cnc1N)c1cc(F)ccc1-n1nccn1 [Example 30, 3-{(1R)-1-[5-fluoro-2-(2H-1,2,3-triazol-2-yl)phenyl]ethoxy}-5-(1-methyl-1H-pyrazol-5-yl)pyridin-2-amine]	–	6110 nM	–	–
Cc1[nH]ncc1-c1cnc(N)c(OC(C)c2cc(F)ccc2F)c1 (centres unmarked) [Example 35, 3-[1-(2,5-difluorophenyl)ethoxy]-5-(5-methyl-1H-pyrazo-4-yl)pyridin-2-amine]	–	5610 nM	–	–
C[C@@H](Oc1nc(-c2ccc(C(N)=O)nc2)cnc1N)c1cc(F)ccc1-n1nccn1 [Example 64, 5-(5-amino-6-{(1R)-1-[5-fluoro-2-(2H-1,2,3-triazol-2-yl)phenyl]ethoxy}pyrazin-2-yl)pyridine-2-carboxamide]	–	–	123 nM	2.4 nM
Cc1nc(CO)sc1-c1cnc(N)c(O[C@H](C)c2cc(F)ccc2-n2nccn2)c1 [Example 107, [5-(6-amino-5-{(1R)-1-[5-fluoro-2-(2H-1,2,3-triazol-2-yl)phenyl]ethoxy}pyridin-3-yl)-4-methyl-1,3-thiazol-2-yl]methanol]	–	–	9.92 nM	< 0.2 nM
C[C@@H](Oc1cc(-c2cn([C@@H]3C[C@H]4CC[C@@H](C3)N4)nc2C#N)cnc1N)c1cc(F)ccc1-n1nccn1 [Example 140, 4-(6-amino-5-{(1R)-1-[5-fluoro-2-(2H-1,2,3-triazol-2-yl)phenyl]ethoxy}pyridin-3-yl)-1-[(3-exo)-8-azabicyclo[3.2.1]oct-3-yl]-1H-pyrazole-3-carbonitrile]	–	–	15.9 nM	< 0.2 nM
CCc1nc(CO)sc1-c1cnc(N)c(O[C@H](C)c2cc(F)ccc2-n2nccn2)c1 [Example 108, [5-(6-amino-5-{(1R)-1-[5-fluoro-2-(2H-1,2,3-triazol-2-yl)phenyl]ethoxy}pyridin-3-yl)-4-ethyl-1,3-thiazol-2-yl]methanol]	–	–	9.38 nM	< 0.2 nM
COc1ccc(-c2cnc(N)c(O[C@H](C)c3cc(F)ccc3-n3nccn3)c2)cc1S(N)(=O)=O [Example 144, 5-(6-amino-5-{(1R)-1-[5-fluoro-2-(2H-1,2,3-triazol-2-yl)phenyl]ethoxy}pyridin-3-yl)-2-methoxybenzenesulfonamide]	–	–	2.45 nM	< 0.2 nM
CNS(=O)(=O)c1ccc(OC)c(-c2cnc(N)c(O[C@H](C)c3cc(F)ccc3-n3nccn3)c2)c1 [Example 143, 3-(6-amino-5-{(1R)-1-[5-fluoro-2-(2H-1,2,3-triazol-2-yl)phenyl]ethoxy}pyridin-3-yl)-4-methoxy-N-methylbenzenesulfonamide]	–	–	8.98 nM	< 0.2 nM
C[C@@H](Oc1cc(-c2cnn([C@H]3CCCNC3)c2)cnc1N)c1cc(F)ccc1-n1nccn1 [Example 98, 3-{(1R)-1-[5-fluoro-2-(2H-1,2,3-triazol-2-yl)phenyl]ethoxy}-5-[1-(piperidin-3-yl)-1H-pyrazol-4-yl]pyridin-2-amine]	–	–	10.8 nM	< 0.2 nM
COc1ccc(S(C)(=O)=O)cc1-c1cnc(N)c(O[C@H](C)c2cc(F)ccc2-n2nccn2)c1 [Example 101, 3-{(1R)-1-[5-fluoro-2-(2H-1,2,3-triazol-2-yl)phenyl]ethoxy}-5-[2-methoxy-5-(methylsulfonyl)phenyl] pyridin-2-amine]	–	–	3.21 nM	< 0.2 nM
CNC(=O)c1nc(C)c(-c2cnc(N)c(O[C@H](C)c3cc(F)ccc3-n3nccn3)c2)s1 [Example 90, 5-(6-amino-5-{(1R)-1-[5-fluoro-2-(2H-1,2,3-triazol-2-yl)phenyl]ethoxy}pyridin-3-yl)-N,4-dimethyl-1,3-thiazole-2-carboxamide]	–	–	58.9 nM	1.2 nM
C[C@@H](Oc1nc(-c2ccnc(N3CCN(C)CC3)c2)cnc1N)c1cc(F)ccc1-n1nccn1 [Example 70, 3-{(1R)-1-[5-fluoro-2-(2H-1,2,3-triazol-2-yl)phenyl]ethoxy}-5-[2-(4-methylpiperazin-1-yl)pyridin-4-yl]pyrazin-2-amine]	–	–	5.48 nM	< 0.2 nM
C[C@@H](Oc1cc(-c2cnn([C@@H]3C[C@H]4CC[C@@H](C3)N4)c2C#N)cnc1N)c1cc(F)ccc1-n1nccn1 [Example 141, 4-(6-amino-5-{(1R)-1-[5-fluoro-2-(2H-1,2,3-triazol-2-yl)phenyl]ethoxy}pyridin-3-yl)-1-[(3-exo)-8-azabicyclo[3.2.1]oct-3-yl]-1H-pyrazole-5-carbonitrile]	–	–	3.5 nM	< 0.2 nM
CNC(=O)c1ncc(-c2cnc(N)c(O[C@H](C)c3cc(F)ccc3-n3nccn3)c2)cn1 [Example 92, 5-(6-amino-5-{(1R)-1-[5-fluoro-2-(2H-1,2,3-triazol-2-yl)phenyl]ethoxy}pyridin-3-yl)-N-methylpyrimidine-2-carboxamide]	–	–	729 nM	7.2 nM
CC(Oc1cc(-c2ccnn2C)cnc1N)c1cc(F)ccc1-n1nccn1 (centres unmarked) [Example 31, 3-{1-[5-fluoro-2-(2H-1,2,3-triazol-2-yl)phenyl]-ethoxy)-5-(1-methyl-1H-pyrazol-5-yl)pyridin-2-amine]	–	13000 nM	–	–
C[C@@H](Oc1cc(-c2cnnn2C)cnc1N)c1cc(F)ccc1-n1nccn1 [Example 21, 3-{(1R)-1-[5-fluoro-2-(2H-1,2,3-triazol-2-yl)phenyl]-ethoxy)-5-(1-methyl-1H-1,2,3-triazol-5-yl)pyridin-2-amine]	–	14400 nM	–	–

Continued, values first:

IC50 [1]	IC50 [2]	IC50 [3]	Ki [4]	SMILES
–	1350 nM	–	–	Cc1n[nH]cc1-c1cnc(N)c(O[C@H](C)c2cc(F)ccc2C#N)c1 [Example 40, 2-[(1R)-1-{[2-amino-5-(3-methyl-1H-pyrazol-4-yl)pyridin-3-yl]oxy}ethyl]-4-fluorobenzonitrile]
–	4500 nM	–	–	Cc1n[nH]cc1-c1cnc(N)c(OC(C)c2cc(F)ccc2-n2nccn2)c1 (centres unmarked) [Example 39, 3-{1-[5-fluoro-2-(2H-1,2,3-triazol-2-yl)phenyl]-ethoxy}-5-(3-methyl-1H-pyrazol-4-yl)pyridin-2-amine]
–	4050 nM	–	–	Cc1n[nH]cc1-c1cnc(N)c(OC(C)c2cc(F)ccc2C#N)c1 (centres unmarked) [Example 38, 2-(1-{[2-amino-5-(3-methyl-1H-pyrazol-4-yl)pyridin-3-yl]oxy}ethyl)-4-fluorobenzonitrile]
–	–	10.1 nM	0.26 nM	C[C@@H](Oc1cc(-c2cccc(S(N)(=O)=O)c2)cnc1N)c1cc(F)ccc1-n1nccn1 [Example 113, 3-(6-amino-5-{(1R)-1-[5-fluoro-2-(2H-1,2,3-triazol-2-yl)phenyl]ethoxy}pyridin-3-yl)benzenesulfonamide]
–	–	38.1 nM	0.203 nM	C[C@@H](Oc1cc(-c2cccc(P(C)(C)=O)c2)cnc1N)c1cc(F)ccc1-n1nccn1 [Example 112, 5-[3-(dimethylphosphoryl)phenyl]-3-{(1R)-1-[5-fluoro-2-(2H-1,2,3-triazol-2-yl)phenyl]ethoxy}pyridin-2-amine]
–	–	25.5 nM	0.216 nM	CC(C)n1cc(-c2cnc(N)c(O[C@H](C)c3cc(F)ccc3-n3nccn3)c2)cn1 [Example 76, 3-{(1R)-1-[5-fluoro-2-(2H-1,2,3-triazol-2-yl)phenyl]ethoxy}-5-[1-(propan-2-yl)-1H-pyrazol-4-yl]pyridin-2-amine]
–	–	9.29 nM	0.26 nM	COc1cc(C(N)=O)ccc1-c1cnc(N)c(O[C@H](C)c2cc(F)ccc2-n2nccn2)c1 [Example 118, 4-(6-amino-5-{(1R)-1-[5-fluoro-2-(2H-1,2,3-triazol-2-yl)phenyl]ethoxy}pyridin-3-yl)-3-methoxybenzamide]
–	–	43.6 nM	0.22 nM	C[C@@H](Oc1cc(-c2ccc3c(c2)CNC3=O)cnc1N)c1cc(F)ccc1-n1nccn1 [Example 89, 5-(6-amino-5-{(1R)-1-[5-fluoro-2-(2H-1,2,3-triazol-2-yl)phenyl]ethoxy}pyridin-3-yl)-2,3-dihydro-1H-isoindol-1-one]
–	–	8.33 nM	0.32 nM	COc1ccc(F)cc1C(C)Oc1cc(-c2ccc(C(C)N)nc2)cnc1N (centres unmarked) [Example 138, 6′-(1-aminoethyl)-5-[1-(5-fluoro-2-methoxyphenyl)ethoxy]-3,3′-bipyridin-6-amine]
